The source of these data is a melting point compilation (Tetko et al.; mined from patent text by program, amines drawn as free bases though some values may be those of a salt).

For orientation: melting point means the temperature, or range, at which the solid turns liquid.

The structures appear in SMILES notation.

Regarding `COc1cc(C(C)C)c(NC(=O)CN2CCN(CCSc3nc4cccc([N+](=O)[O-])c4o3)CC2)c(C(C)C)c1`, the melting point fell in the range of 165 to 166 °C. `O=C(c1cccc2ccccc12)P1(=O)Oc2ccccc2-c2ccccc21` (stereo not drawn): the melting point was in the range of 149 to 151 °C. For `CC(c1oc2ccccc2c(=O)c1-c1cccc(F)c1)n1ncc2c(Cl)ccnc21` (stereo not drawn) the value was 173 to 176 °C; for `COc1ccc(N2CCN(c3c(C)c(C)c4c(c3C)C(OCc3ccccn3)C(C)(C)O4)CC2)cc1` (stereo not drawn), 120 to 121 °C. Turning to `NC(=O)c1c(F)ccc(OCc2cc3cc(C(F)(F)F)ccc3s2)c1F`, the melting point lay within 150 to 152 °C.

Regarding `Cc1ccccc1-c1c(NC(=O)Nc2ccc(F)cc2F)c(=O)oc2cc3c(cc12)CCC3`, the melting point lay within 223 to 224 °C. For `O=C1NC(c2ccccc2)=C2C(=O)OC(c3ccc(Br)cc3)=C12` the value was 295 °C; for `OC(COc1ccc(Cl)cc1Cl)(Cn1cnnc1)Cn1cncn1` (stereo not drawn), 182 °C.

The compound `Cc1cc(-c2nnc3c4ccccc4c(OCc4cnc5ccccc5n4)nn23)no1` had a melting point of 243 to 245 °C. For `CCCn1nc2c(N)nc3ccccc3c2c1CCNC(=O)CC` the value was 184 to 185 °C; for `CS(=O)(=O)c1ccc(Oc2cc(OCc3cccc(Cl)n3)c3[nH]c(C4=NCC(CC(N)=O)S4)cc3c2)cc1` (stereo not drawn), 147 to 148 °C; for `COc1ccc(C=Cc2c(Cl)cncc2Cl)c2c1OCC2C` (stereo not drawn), 117 to 118 °C.

Compound `CCN(CC)CCc1cccc(N2C(=O)N(c3ccc(Cl)cc3Cl)Cc3cnc(Nc4ccccc4)nc32)c1` registered a melting point of 186 °C. As to `CCCc1ccccc1OCCCOc1ccc2c(=O)cc(C#N)oc2c1`, the melting point was 85 to 86 °C.

On to `Nc1cc(F)c(F)c(Cl)c1Cl`, for which the melting point lay within 94 to 97.5 °C. For `NNN=CN(N)CC(=O)O` the value was 148 to 149 °C; for `CCc1c(C(=O)c2cc(C)cc(C)c2)n(C/C=C\c2ccccc2)c(=O)[nH]c1=O`, 98 to 99 °C. Next, `OCc1ccc(-c2cn(Cc3ccccc3)c3ccccc23)cc1`: 122 °C.

As for `COc1ccc(NCC2CCn3c(nc4ccccc43)S2)cc1` (stereo not drawn), the melting point was 155 to 157 °C. As to `CCCN(CCC)C(N)=O`, the melting point was 69 °C. For `CC1(O)C(O)C(CO)OC1n1ccc2c(N=[N+]=[N-])ncnc21` (stereo not drawn) the value was 179 to 180 °C; for `Cc1c(NC(=O)c2ccc(OC[C@H]3CCCO3)cc2)ccc2cc(CNCC(C)(C)C)cnc12`, 110 to 111 °C.

`CCCOc1ccc(S(=O)(=O)NCCN(C)C)cc1-c1nc2cc(N)c(N)cc2c(=O)[nH]1` came in with a melting point of 202 to 204 °C. For `CS(=O)(=O)c1ccc(C(Cc2ccc(F)cc2)C(=O)Nc2nc3ccccc3o2)cc1` (stereo not drawn) the value was 109 to 110 °C; for `CCCC(C(C)=CC(CNC(=O)Cc1cccnc1)=NO)[N+](=O)[O-]` (stereo not drawn), 128 to 129 °C.

In the case of `N#Cc1ccc(N2Cc3ccccc3C2)c2ccccc12`, the melting point fell in the range of 156 to 158 °C.

With `C=C(C)[C@H]1CC[C@@](C)(O)[C@H](N[C@@H](C)C2CCCCC2)C1`, the melting point is 63 to 64 °C. Next, `O=C(O)C(CCCc1cccc2ccccc12)c1ccccc1` (stereo not drawn): 99 to 100 °C. In turn, `Cc1ccc(C[C@@H](NC(=O)c2cccc3c2C=CCCC3)[C@@H](O)c2ccc(F)cc2)cc1OC(F)(F)C(F)F` (racemic) displayed a melting point of 168 to 169 °C.

`CSC(c1ccc(Cl)cc1)C(C(O)C(C)(C)C)n1cncn1` (stereo not drawn): the melting point was in the range of 58 to 60 °C. For `CC1(C)C(=O)Nc2ccc(N)cc21`, the melting point fell in the range of 185 to 191 °C. For `COc1ccc(CN2C(=O)C3(COc4cc(O)c(C#N)cc43)c3ccccc32)cc1` (stereo not drawn) the value was 112 to 114 °C. The compound `Cc1c(C)c2c(c(C)c1O)CC(CCO)O2` (racemic) displayed a melting point of 123 to 125 °C. Next, `COc1ccc(-c2c(C(=O)c3ccccc3)c(CBr)nc3cc(OC)c(OC)cc23)cc1OC`: 182 to 183 °C; `CCOC(=O)C(C)=CNc1ccc(OCC)c(C)n1`: 118 to 122 °C; `CCC(=O)c1cc(C(=O)OC)c(N)cc1C(F)(F)F`: 141 to 144 °C. In turn, `CC(C)(C)c1cccc(S(=O)(=O)n2c(Cc3ccc(C(=O)O)c(F)c3)cc3cc(C(F)(F)F)ccc32)c1` showed a melting point of 144 °C. Next, `NNC(=O)c1ccc2c(c1)C(=C(Cl)Cl)OC(C(Cl)(Cl)Cl)O2` (stereo not drawn): 182 to 183 °C.

The compound `Fc1cc(F)cc(Cn2cnnc2S)c1` had a melting point of 129 to 130 °C. For `CCOC(=O)c1cn(NCC(=O)OC(C)(C)C)c2c(F)c(F)c(F)cc2c1=O` the value was 99.5 to 102 °C; for `Nc1cc(-c2ccoc2)ccc1Nc1cccc(C(=O)O)c1`, 211 to 212 °C. Next, `CCn1c2ccccc2c(=NN=C2NCCS2)c2ccccc21`: 187 to 188 °C; `O=C1NC(N2CCCCCC2)=N/C1=C\c1c[nH]c2ncc(F)cc12`: 299 °C; `CCOCC1OC(n2cnc3c(NC4CCCC4)nc(Cl)nc32)C(O)C1O` (stereo not drawn): 114 to 116 °C.

For `Cc1cn2c(=O)c3c(F)cccc3nc2s1`, the melting point is 245 to 246 °C.

Consider `CCOC(=O)N1CCc2cc(OC)c(OC)cc2C(Oc2ccc(C(F)(F)F)cc2)C1` (stereo not drawn), for which the melting point is 130 to 131 °C. Turning to `c1ccc(CNc2nccc3ccccc23)cc1`, the melting point lay in the range of 101 to 102 °C. Next, `O=C(NCCCn1cncn1)Nc1cccc(C(F)(F)F)c1`: 97 to 99 °C. Next, `O=C1C=C(OCCCCCCO)c2ccccc2C1=O`: 96 to 98 °C; `COC1(OC)CC2CC[C@@]1(CS(=O)(=O)N(C(C)C)C(C)C)C2(C)C`: 73.8 to 74.6 °C. Next, `CN1Cc2c(-c3noc(CNC4CC4)n3)ncn2-c2ccc(F)cc2C1=O`: 176 to 178 °C.

`COC(=O)[C@@H]1C(=O)NC[C@H]1c1ccc(Cl)cc1` registered a melting point of 166 °C.

`COc1cc2c(cc(C(=O)OCc3ccccc3)n2CCC#N)c(C)c1C` showed a melting point of 140 °C. For `Cc1ccccc1[C@@H](CCC(=O)O)Oc1cc(OCc2ccsc2)ccc1[N+](=O)[O-]` the value was 130 to 131 °C; for `O=C(O)Cc1ccc(OCc2ccccc2)cc1[N+](=O)[O-]`, 145 to 152 °C. For `CCNC(=O)C(C)(C)N=NC(C)(C)C(=O)NCC` the value was 98 °C. In turn, `O=C1CCC(N2Cc3c(OCc4ccc(CCN5CCOCC5)cc4)cccc3C2=O)C(=O)N1` (stereo not drawn) yielded a melting point of 230 to 232 °C. Next, `CCN(CC)c1nc2cc(C)nn2c2c1cnc1c2cnn1CC`: 106 to 108 °C; `CSc1ncc2c(Cl)ccn2n1`: 107 to 108 °C; `Oc1ccc2cc(-c3csc(-c4ccccc4)n3)ccc2c1Br`: 176 to 183 °C. For `CCC(=O)Nc1nc(CC(=O)Nc2nnc(C(C)(C)C)s2)cs1` the value was 210 to 212 °C; for `COC(=O)c1ccc(C[C@@H]2COc3ccc(OCc4ccc5ccccc5n4)cc3[C@H]2O)cc1` (relative stereo), 138 to 140 °C; for `N#CCN1CCOC(c2ccccc2)(c2ccccc2)CC1`, 119 to 121 °C.
